Test results as given in patent US8933102B2, “Pyrrolidine derived β3 adrenergic receptor agonists” (Merck Sharp & Dohme Corp., priority 2010, dated 2015).
Like-named read-outs stand apart in the source and are kept apart here.

Molecular target: T1, human β3 adrenergic receptor (Homo sapiens, UniProt P13945)
T1 construct: expressed in transfected cells; host or cells: Chinese hamster ovary (CHO) cells, stably transfected
Assay: Beta-3 agonist in vitro functional assay (cAMP production, LANCE, CHO cells stably transfected with cloned β3 receptor)
Type: cell-based
Details: cAMP production in CHO cells expressing human β3 AR
Description: Functional Assay: cAMP production in response to ligand is measured according to Barton, et al. (1991, Agonist-induced desensitization of D2 dopamine receptors in human Y-79 retinoblastoma cells. Mol. Pharmacol. […]) modified as follows. cAMP production is measured using a homogenous time-resolved fluorescence resonance energy transfer immunoassay (LANCE™, Perkin Elmer) according to the manufacture's instructions. Chinese hamster ovary (CHO) cells, stably transfected with the cloned β-adrenergic receptor (β1, β2 or β3) are harvested after 3 days of subculturing. Harvesting of cells is done with Enzyme-free Dissociation Media (Specialty Media). Cells are then counted and resuspended in assay buffer (Hank's Balanced salt solution supplemented with 5 mM HEPES, […]) containing a phosphodiesterase inhibitor (IBMX, 0.6 mM). The reaction is initiated by mixing 6,000 cells in 6 μL with 6 μL Alexa Fluor labeled cAMP antibody (LANCE™ kit) which is then added to an assay well containing 12 μL of compound (diluted in assay buffer to 2× final concentration). The reaction proceeds for 30 minutes at RT and is terminated by the addition of 24 ul detection buffer (LANCE™ kit). The assay plate is then incubated for 1 h at RT and time-resolved fluorescence measured on a Perkin Elmer Envision reader or equivalent. The unknown cAMP level is determined by comparing fluorescence levels to a cAMP standard curve.
The non-selective, full agonist 13-adrenergic ligand isoproterenol is used at all three receptors to determine maximal stimulation. The human β3 adrenergic receptor (AR) selective ligand (S)—N-[4-[2-[[2-hydroxy-3-(4-hydroxyphenoxy)propyl]amino]ethyl]-phenyl]-4-iodobenzenesulfonamide is used as a control in all assays. Isoproterenol is titrated at a final concentration in the assay of 10^-10 M to 10-5 and the selective ligand (S)—N-[4-[2-[[2-hydroxy-3-(4-hydroxyphenoxy)propyl]amino]ethyl]phenyl]-4-iodobenzenesulfonamide is titrated at the β3 receptor at concentration of 10^-10 M to 10^-5 M. Unknown ligands are titrated at all 3 β-adrenergic receptor subtypes at a final concentration in the assay of 10^-10 M to 10^-5 M to determine the EC50. The EC50 is defined as the concentration of compound that gives 50% activation of its own maximum. Data are analyzed using Microsoft Excel and Graphpad Prism or an internally developed data analysis software package.

[1] = ranges as class symbols, read-out: Human β3 agonist functional activity

T1 sequence (P13945 whole entry): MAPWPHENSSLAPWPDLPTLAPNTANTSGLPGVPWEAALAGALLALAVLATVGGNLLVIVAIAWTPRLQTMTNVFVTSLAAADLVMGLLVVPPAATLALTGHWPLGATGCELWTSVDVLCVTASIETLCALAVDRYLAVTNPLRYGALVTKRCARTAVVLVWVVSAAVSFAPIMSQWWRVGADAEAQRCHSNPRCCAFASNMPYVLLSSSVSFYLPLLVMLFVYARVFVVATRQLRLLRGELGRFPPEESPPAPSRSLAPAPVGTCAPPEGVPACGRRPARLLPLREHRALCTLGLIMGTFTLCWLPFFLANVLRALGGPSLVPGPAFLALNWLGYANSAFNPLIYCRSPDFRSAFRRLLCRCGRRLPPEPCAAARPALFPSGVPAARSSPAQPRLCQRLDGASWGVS

Compound	EC50 (read-out: human Beta-3 agonist functional activity)	EC50 [1]
O=C(c1ccc(C[C@@H]2CC[C@H]([C@H](O)COc3ccccc3)N2)cc1)N1CCC(n2cccn2)CC1 [Example 1]	1 to 10 nM	–
Cn1nnnc1C1CCN(C(=O)c2ccc(C[C@@H]3CC[C@H]([C@H](O)COc4ccccc4)N3)cc2)CC1 [Example 4]	–	< 1 nM
O=C(c1ccc(C[C@@H]2CC[C@H]([C@H](O)COc3ccccc3)N2)cc1)N1CCN(Cc2ccncn2)CC1 [Example 6]	–	1 to 10 nM

Other lines, results leading:

EC50 (read-out: human Beta-3 agonist functional activity)	EC50 [1]	Compound
–	1 to 10 nM	O=C(c1ccc(C[C@@H]2CC[C@H]([C@H](O)COc3ccccc3)N2)cc1)N1CCC(n2nccn2)CC1 [Example 2]
–	11 to 100 nM	O=C(c1ccc(C[C@@H]2CC[C@H]([C@H](O)COc3ccccc3)N2)cc1)N1CCC(n2ccnn2)CC1 [Example 3]
–	< 1 nM	O=C(c1ccc(C[C@@H]2CC[C@H]([C@H](O)COc3ccccc3)N2)cc1)N1C[C@@H]2[C@H](C1)[C@H]2n1cnnn1 [Example 5]
